Source: US6413517B1, “Identification of broadly reactive DR restricted epitopes” (Epimmune, Inc., priority 1997, dated 2002)
Like-named read-outs stand apart in the source and are kept apart here. No end group written: not given here.

Legend:
DRB1*0802 (DR8w2) = biological target: T1, DRB1*0802 (DR8w2) (Homo sapiens, UniProt P01903+P01911, A100R/A103L/A169T/F76Y/H45Y/I96F/K41T/L162R/M171V/P40S/Q125H/Q178H/Q39Y/Q99D/R218S/R42G/S66Y/V115G/W38E); test: biochemical; format: binding
T1 construct: Epstein-Barr virus (EBV) transformed homozygous cell lines were used as sources; endogenous in cells; host or cells: OLL (EBV-transformed homozygous B cell line)

DRB1*0405 (DR4w15) = biological target: T2, DRB1*0405 (DR4w15) (Homo sapiens, UniProt P01903+P01911, A100R/A169T/D86S/F76Y/I96L/K127E/L162R/M171V/N62H/P40V/Q125Y/R42H/S133A/S149N/S66Y/V115G/V209L/W38E); test: biochemical; format: binding
T2 construct: Epstein-Barr virus (EBV) transformed homozygous cell lines were used as sources; endogenous in cells; host or cells: KT3 (EBV-transformed homozygous B cell line)

DRB1*1501 (DR2w2b) = biological target: T3, DRB1*1501 (DR2w2b) (Homo sapiens, UniProt P01903+P01911); test: biochemical; format: binding
T3 construct: expressed in transfected cells; host or cells: transfected fibroblasts L466.1

DRB1*0901 (DR9) = biological target: T4, DRB1*0901 (DR9) (Homo sapiens, UniProt P01903+P01911, A100R/A103E/D57H/D86V/F55Y/F60I/F76Y/I96F/K127E/L162R/M171V/P40D/Q125H/Q99R/R33Q/R42F/S133A/S66N/T210M/V115G/W38K/Y107V/Y59G/Y89S); test: biochemical; format: binding
T4 construct: Epstein-Barr virus (EBV) transformed homozygous cell lines were used as sources; endogenous in cells

DRB1*0101 (DR1) = biological target: T5, DRB1*0101 (DR1) (Homo sapiens, UniProt P01903+P01911, A100R/D57E/F55L/F60I/F76Y/I96L/L162R/M171V/P40L/Q125E/R42F/V115G/Y59C); test: biochemical; format: binding
T5 construct: Epstein-Barr virus (EBV) transformed homozygous cell lines were used as sources; endogenous in cells; host or cells: LG2 (EBV-transformed homozygous B cell line)

DRB1*0301 (DR3w17) [1] = biological target: T6, DRB1*0301 (DR3w17) (Homo sapiens, UniProt P01903+P01911, A100K/A102G/A103R/A169T/F55Y/I96L/K41T/L162R/M171V/P40S/Q125H/Q178H/Q39Y/R42S/S66N/T106N/T262R/W38E/Y61H); test: biochemical; conditions: Binding Capacity (IC50% nM) DR3
DRB1*1302 (DR6w19) = biological target: T7, DRB1*1302 (DR6w19) (Homo sapiens, UniProt P01903+P01911, A100E/A169T/K41T/L162R/M171V/P40S/Q125H/Q178H/Q39Y/Q99D/R42S/S66N/T262R/V115G/W38E/Y61H); test: biochemical; format: binding
T7 construct: Epstein-Barr virus (EBV) transformed homozygous cell lines were used as sources; the source of Class II molecules the EBV transformed homozygous cell line H0301; endogenous in cells; host or cells: H0301 (EBV-transformed homozygous B cell line)

DRB1*1101 (DR5w11) = biological target: T8, DRB1*1101 (DR5w11) (Homo sapiens, UniProt P01903+P01911, A100R/A169T/A87E/I96F/K41T/L162R/M171V/P40S/Q125H/Q178H/Q39Y/Q99D/R42S/S66Y/T262R/V115G/W38E); test: biochemical; format: binding
T8 construct: Epstein-Barr virus (EBV) transformed homozygous cell lines were used as sources; endogenous in cells; host or cells: SWEIG (EBV-transformed homozygous B cell line)

DRB1*1201 (DR5w12) = biological target: T9, DRB1*1201 (DR5w12) (Homo sapiens, UniProt P01903+P01911, A100R/A169T/D57E/D86V/F55L/H45Y/K41T/L162R/M171V/P40S/Q125H/Q178H/Q39Y/Q99D/R42G/S66L/T262R/V114A/V67L/W38E/Y59H/Y61H/Y89S); test: biochemical; format: binding
T9 construct: Epstein-Barr virus (EBV) transformed homozygous cell lines were used as sources; endogenous in cells; host or cells: Herluf (EBV-transformed homozygous B cell line)

DRB1*0401 (DR4w4) = biological target: T10, DRB1*0401 (DR4w4) (Homo sapiens, UniProt P01903+P01911, A100K/A169T/F76Y/I96L/K127E/L162R/M171V/N62H/P40V/Q125Y/R42H/S133A/S149N/S66Y/V115G/V209L/W38E); test: biochemical; format: binding
T10 construct: Epstein-Barr virus (EBV) transformed homozygous cell lines were used as sources; endogenous in cells; host or cells: PREISS (EBV-transformed homozygous B cell line)

DRB1*0701 (DR7) = biological target: T11, DRB1*0701 (DR7) (Homo sapiens, UniProt P01903+P01911, A100R/A102G/A103Q/D57E/D86V/E43K/F76Y/K127E/L162R/M171V/P40G/Q125H/Q99D/R33Q/R42Y/R54Q/S133A/S66F/T210M/V115G/Y107V/Y59L/Y89S); test: biochemical; format: binding
T11 construct: Epstein-Barr virus (EBV) transformed homozygous cell lines were used as sources; endogenous in cells; host or cells: PITOUT (EBV-transformed homozygous B cell line)

DRB1*0301 (DR3w17) [2] = biological target: T6, DRB1*0301 (DR3w17); conditions: read-out: Binding Capacity (IC 50% nM) Other Alleles DR3
DRB5*0101 (DR2w2a) = biological target: T12, DRB5*0101 (DR2w2a) (Homo sapiens, UniProt P01903+Q30154); test: biochemical; format: binding
T12 construct: Epstein-Barr virus (EBV) transformed homozygous cell lines were used as sources; endogenous in cells; host or cells: GM3107 (EBV-transformed homozygous B cell line)

[3] = Binding Capacity (IC 50% nM) DR1,4,7 DRB1
[4] = Binding Capacity (IC 50% nM) Other Alleles DR6w19
[5] = Binding Capacity (IC50% nM) DR5w12
[6] = read-out: Binding Capacity (IC 50% nM) Other Alleles DR5w12
[7] = Binding Capacity (IC 50% nM) DR1,4,7 DR4w4
[8] = Binding Capacity (IC 50% nM) DR1,4,7 DR7
[9] = Binding Capacity (IC50% nM) DR8w2
[10] = read-out: Binding Capacity (IC 50% nM) Other Alleles DR8w2
[11] = read-out: Binding Capacity (IC 50% nM) Other Alleles DR4w15
[12] = Binding Capacity (IC 50% nM) Other Alleles DR2w2b
[13] = Binding Capacity (IC50% nM) DR9
[14] = read-out: Binding Capacity (IC 50% nM) Other Alleles DR9
[15] = read-out: Binding Capacity (IC 50% nM) Other Alleles DR5w11
[16] = read-out: Binding Capacity (IC 50% nM) Other Alleles DR2w2a

T8 sequence (P01903 26-254, other chains not shown): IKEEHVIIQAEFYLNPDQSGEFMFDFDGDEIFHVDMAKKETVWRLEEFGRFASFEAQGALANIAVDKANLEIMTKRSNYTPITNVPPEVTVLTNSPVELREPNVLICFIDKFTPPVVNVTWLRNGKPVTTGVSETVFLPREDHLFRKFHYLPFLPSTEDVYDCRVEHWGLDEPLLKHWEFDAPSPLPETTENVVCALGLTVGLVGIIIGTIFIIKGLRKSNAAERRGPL

Compound | IC50 (DRB1*0101 (DR1); [3]) | IC50 (DRB1*0301 (DR3w17) [1]) | IC50 (DRB1*1302 (DR6w19); [4]) | IC50 (DRB1*1201 (DR5w12); [5]) | IC50 (DRB1*1201 (DR5w12); [6]) | IC50 (DRB1*0401 (DR4w4); [7]) | IC50 (DRB1*0701 (DR7); [8]) | IC50 (DRB1*0301 (DR3w17) [2]) | IC50 (DRB1*0802 (DR8w2); [9]) | IC50 (DRB1*0802 (DR8w2); [10]) | IC50 (DRB1*0405 (DR4w15); [11]) | IC50 (DRB1*1501 (DR2w2b); [12]) | IC50 (DRB1*0901 (DR9); [13]) | IC50 (DRB1*0901 (DR9); [14]) | IC50 (DRB1*1101 (DR5w11); [15]) | IC50 (DRB5*0101 (DR2w2a); [16]) | other results
CC(C)C[C@H](NC(=O)[C@H](CC(C)C)NC(=O)CNC(=O)[C@H](C)NC(=O)[C@H](CC(C)C)NC(=O)[C@@H](NC(=O)[C@H](CO)NC(=O)[C@@H](NC(=O)[C@H](C)NC(=O)[C@H](CC(C)C)NC(=O)[C@H](CCCCN)NC(=O)[C@H](Cc1ccc(O)cc1)NC(=O)[C@H](CCCCN)NC(=O)[C@H](CO)NC(=O)[C@@H](N)CCCCN)[C@@H](C)O)C(C)C)C(=O)O [Peptide 1188.16] | < 1000 nM | > 10000 nM | < 1000 nM | > 10000 nM | > 1000 nM | < 1000 nM | < 1000 nM | > 1000 nM | – | – | – | – | – | – | – | – | IC50 (DRB1*0802 (DR8w2); Binding Capacity (IC 50% nM) Other Alleles DR8w2): < 1000 nM; IC50 (DRB1*0405 (DR4w15); Binding Capacity (IC 50% nM) Other Alleles DR4w15): < 1000 nM; IC50 (DRB1*1501 (DR2w2b); read-out: Binding Capacity (IC 50% nM) Other Alleles DR2w2b): > 1000 nM; IC50 (DRB1*0901 (DR9); Binding Capacity (IC 50% nM) Other Alleles DR9): < 1000 nM; IC50 (DRB1*1101 (DR5w11); Binding Capacity (IC 50% nM) Other Alleles DR5w11): < 1000 nM; IC50 (DRB5*0101 (DR2w2a); Binding Capacity (IC 50% nM) Other Alleles DR2w2a): < 1000 nM
CC[C@H](C)[C@H](NC(=O)[C@H](CC(=O)O)NC(=O)[C@H](CC(C)C)NC(=O)[C@@H](NC(=O)CNC(=O)[C@@H](NC(=O)[C@@H](NC(=O)[C@@H](NC(=O)[C@@H](NC(=O)[C@H](C)NC(=O)[C@H](CC(C)C)NC(=O)[C@@H](NC(=O)[C@H](CC(N)=O)NC(=O)[C@H](CO)NC(=O)[C@H](CC(C)C)NC(=O)[C@@H](N)CC(N)=O)C(C)C)[C@@H](C)O)[C@@H](C)CC)[C@@H](C)O)[C@@H](C)O)C(C)C)C(=O)O [Peptide 1136.24] | < 1000 nM | > 10000 nM | < 1000 nM | > 10000 nM | > 1000 nM | – | < 1000 nM | > 1000 nM | > 10000 nM | > 1000 nM | > 1000 nM | < 1000 nM | > 10000 nM | > 1000 nM | > 1000 nM | > 1000 nM | IC50 (DRB1*1101 (DR5w11); Binding Capacity (IC50% nM) DR5w11): > 10000 nM; IC50 (DRB1*0401 (DR4w4); read-out: Binding Capacity (IC 50% nM) DR1,4,7 DR4w4): > 1000 nM
LAAIIFLFGPPTALRS [Peptide 1136.28] | < 1000 nM | > 10000 nM | – | 4480 nM | > 1000 nM | < 1000 nM | – | > 1000 nM | 7540 nM | > 1000 nM | > 1000 nM | < 1000 nM | > 10000 nM | > 1000 nM | > 1000 nM | > 1000 nM | IC50 (DRB1*0405 (DR4w15); Binding Capacity (IC50% nM) DR4w15): 6670 nM; IC50 (DRB1*0101 (DR1); Binding Capacity (IC50% nM) DR1): 0.23 nM; IC50 (DRB1*1302 (DR6w19); Binding Capacity (IC50% nM) DR6w19): 3180 nM; IC50 (DRB1*1302 (DR6w19); read-out: Binding Capacity (IC 50% nM) Other Alleles DR6w19): > 1000 nM; IC50 (DRB1*0401 (DR4w4); Binding Capacity (IC50% nM) DR4w4): 849 nM; IC50 (DRB1*0701 (DR7); Binding Capacity (IC50% nM) DR7): 3620 nM; IC50 (DRB1*0701 (DR7); read-out: Binding Capacity (IC 50% nM) DR1,4,7 DR7): > 1000 nM; IC50 (DRB5*0101 (DR2w2a); Binding Capacity (IC50% nM) DR2w2a): 1480 nM
